# Data taken from patent US10525055B2, “Opioid receptor antagonist prodrugs” (Nirsum Laboratories, Inc., priority 2017, dated 2020).
# pIC50: −log10 of the molar value.
# Key:
# [1] = Dog pharmacokinetic studies, deep intramuscular; format: in vivo, Beagle dogs; conditions: dog IM, 48 mg/kg, Sesame oil + 1% Benzyl Alcohol
# Protocol: The purpose of this study is to determine the pharmacokinetics of test compounds in plasma, following deep intramuscular administration to Beagle dogs (n=3, unless otherwise specified).
# (§1) The dose formulation (concentration−400 mg base equivalents/ml in sesame oil+1% benzyl alcohol, unless otherwise specified) was administered via deep intramuscularly (unless otherwise specified). The injection vehicle was also dosed via deep intramuscular route (unless otherwise specified) on contralateral site of each animal at study initiation. The animals were sedated with Propofol at 6 mg/kg via IV administration. Following sedation hair was carefully removed from around the injection site and the area gently cleaned. Care will be taken to avoid irritating skin during shaving and cleaning the injection site. Then dogs will be dosed with deep IM administration. At least 2.5 cm depth from the surface into the central aspect of the quadriceps or biceps femoris muscle, by angling the needle toward the femur. If the needle hits the femur, simply draws back slightly and then inject. The dose volume will be determined by the animals' body weight collected on the morning of dosing day. For repeated administration, the injection sites may be rotated to minimize tissue injury.
# Blood samples were collected from a peripheral vessel from restrained, non-sedated animals per sampling time point.
# Approximately 0.8 mL blood will be collected at each time point.
# Each collected blood sample was centrifuged for 4 minutes at 4° C. and 10000 rpm for plasma collection. Plasma was collected and transferred into a pre-labeled PP tube in dry ice at each time point and precipitated immediately using ACN at a ratio of 1:4 (plasma:ACN). Centrifuged again (10 minutes, 12000 rpm) and obtain the supernatant.
# After terminal collection, all supernatant was stored at approximately −80° C. F until bioanalysis.
# LC-MS/MS methods for the quantitative determination of test compound in biological matrix were developed. […] The sample analysis was performed concurrently with a set of calibration standards and two sets of QC samples using the LC-MS/MS method.
# Plasma concentration versus time data was analyzed by non-compartmental approaches using the Phoenix WinNonlin 6.3 software program. Cmax, Tmax, T1/2, AUC(0-t), AUC(0-inf), MRT(0-t), MRT(0-inf) and graphs of plasma concentration versus time profile were prepared.
# [2] = Solubility determination in oil (cottonseed oil, sesame oil); conditions: Sesame oil; volumetric flask method; heating 60 °C, obs. 25 °C
# Protocol: A known amount of test substance (˜40 mg) was weighed into the vial, 100 μL of oil was added and heated to 60° C. and then system was slurried to reach equilibrium. […] Extra oil was added into the vial once compound precipitated out and then the system was re-equilibrated at 1000 rpm at room temperature (25° C.). Final concentration was determined by HPLC method as described below in Table 6a and 6b.
# DOR = molecular target: T1, DOR (Homo sapiens, UniProt P41143); test: Opioid receptor binding assay, DOR ([3H]-DADLE); conditions: for %Inh@MaxDose: DOR
# T1 construct: expressed in transfected cells; membranes prepared from them
# [3] = Dog clinical observations after intramuscular dosing; format: in vivo, Beagle dogs
# Protocol: Weight monitoring was done every week.
# as §1
# T1 sequence (P41143 whole entry): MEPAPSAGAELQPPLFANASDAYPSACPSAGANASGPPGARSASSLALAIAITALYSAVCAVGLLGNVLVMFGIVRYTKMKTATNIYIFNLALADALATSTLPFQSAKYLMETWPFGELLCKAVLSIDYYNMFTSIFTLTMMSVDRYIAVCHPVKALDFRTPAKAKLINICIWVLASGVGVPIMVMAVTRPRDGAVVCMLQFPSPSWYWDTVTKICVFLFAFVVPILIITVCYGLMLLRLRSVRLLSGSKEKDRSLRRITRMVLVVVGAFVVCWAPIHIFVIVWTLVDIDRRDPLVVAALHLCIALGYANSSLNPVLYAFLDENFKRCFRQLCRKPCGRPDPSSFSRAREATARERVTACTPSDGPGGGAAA
smiles,measurement,setting,value
"C=C1CC[C@@]2(O)C3Cc4ccc(OC(=O)OCCCCCCCCCCC)c5c4[C@@]2(CCN3CC2CC2)[C@H]1O5 [Compound 3, (4aS,7aS,12bS)-3-(cyclopropylmethyl)-4a-hydroxy-7-methylene-2,3,4,4a,5,6,7,7a-octahydro-1H-4,12-methanobenzofuro[3,2-e]isoquinolin-9-yl undecyl carbonate]",AUC0-inf (ng · h/mL) prodrug,[1],360 ng·h/mL
same,Half-life t1/2 (hour) prodrug,[1],63.1 h
same,Solubility by volumetric flask method: Sesame oil,[2],>400.7 mg/mL
"CCCCCCCCCCCOC(=O)OCOc1ccc2c3c1O[C@H]1C(=O)CC[C@@]4(O)C(C2)N(CC2CC2)CC[C@]314 [Compound 4, (((4aS,7aR,12bS)-3-(cyclopropylmethyl)-4a-hydroxy-7-oxo-2,3,4,4a,5,6,7,7a-octahydro-1H-4,12-methanobenzofuro[3,2-e]isoquinolin-9-yl)oxy)methyl undecyl carbonate]",AUC0-inf (ng · h/mL) prodrug,[1],829 ng·h/mL
same,pIC50,DOR,< 5.00
same,%Inh@MaxDose,DOR; MaxDose 10000 nM,43.2%
same,Solubility by volumetric flask method: Sesame oil,[2],>400.4 mg/mL
"C=C1CC[C@@]2(O)C3Cc4ccc(OCOC(=O)OCCCCCCCCCCC)c5c4[C@@]2(CCN3CC2CC2)[C@H]1O5 [Compound 5, (((4aS,7aS,12bS)-3-(cyclopropylmethyl)-4a-hydroxy-7-methylene-2,3,4,4a,5,6,7,7a-octahydro-1H-4,12-methanobenzofuro[3,2-e]isoquinolin-9-yl)oxy)methyl undecyl carbonate]",AUC0-inf (ng · h/mL) prodrug,[1],3869 ng·h/mL
same,Half-life t1/2 (hour) prodrug,[1],70.9 h
same,"BT (clinical observations, R-TA)","[3]; dog D1001, 48 mg/kg, 264 hr",BT:38.6 °C
same,"BT (clinical observations, R-TA)","[3]; dog D1001, 48 mg/kg, 288 hr",BT:38.6 °C
same,"BT (clinical observations, R-TA)","[3]; dog D1001, 48 mg/kg, 312 hr",BT:38.0 °C
same,"BT (clinical observations, R-TA)","[3]; dog D1001, 48 mg/kg, 336 hr",BT:38.4 °C
same,"BT (clinical observations, R-TA)","[3]; dog D1001, 48 mg/kg, 360 hr",BT:38.1 °C
same,"BT (clinical observations, R-TA)","[3]; dog D1001, 48 mg/kg, 432 hr",BT:38.0 °C
same,"BT (clinical observations, R-TA)","[3]; dog D1001, 48 mg/kg, 480 hr",BT:38.0 °C
same,"BT (clinical observations, R-TA)","[3]; dog D1001, 48 mg/kg, 528 hr",BT38.2 °C
same,"BT (clinical observations, R-TA)","[3]; dog D1001, 48 mg/kg, 552 hr",BT:38.4 °C
same,"BT (clinical observations, R-TA)","[3]; dog D1001, 48 mg/kg, 576 hr",BT:38.4 °C
same,"BT (clinical observations, R-TA)","[3]; dog D1001, 48 mg/kg, 600 hr",BT:38.3 °C
same,"BT (clinical observations, R-TA)","[3]; dog D1001, 48 mg/kg, 624 hr",BT:38.6 °C
same,"BT (clinical observations, R-TA)","[3]; dog D1001, 48 mg/kg, 648 hr",BT:38.3 °C
same,"BT (clinical observations, R-TA)","[3]; dog D1001, 48 mg/kg, 672 hr",BT:38.3 °C
same,"BT (clinical observations, R-TA)","[3]; dog D1001, 48 mg/kg, […]",BT:38.7 °C
same,"BT (clinical observations, R-TA)","[3]; dog D1002, 48 mg/kg, 264 hr",BT:39.5 °C
same,"BT (clinical observations, R-TA)","[3]; dog D1002, 48 mg/kg, 288 hr",BT:39.5 °C
same,"BT (clinical observations, R-TA)","[3]; dog D1002, 48 mg/kg, 312 hr",BT:38.5 °C
same,"BT (clinical observations, R-TA)","[3]; dog D1002, 48 mg/kg, 336 hr",BT:38.7 °C
same,"BT (clinical observations, R-TA)","[3]; dog D1002, 48 mg/kg, 360 hr",BT:39.1 °C
same,"BT (clinical observations, R-TA)","[3]; dog D1002, 48 mg/kg, 432 hr",BT:38.9 °C
same,"BT (clinical observations, R-TA)","[3]; dog D1002, 48 mg/kg, 456 hr",BT:38.9 °C
same,"BT (clinical observations, R-TA)","[3]; dog D1002, 48 mg/kg, 480 hr",BT:39.2 °C
same,"BT (clinical observations, R-TA)","[3]; dog D1002, 48 mg/kg, 504 hr",BT:38.7 °C
same,"BT (clinical observations, R-TA)","[3]; dog D1002, 48 mg/kg, 528 hr",BT:37.9 °C
same,"BT (clinical observations, R-TA)","[3]; dog D1002, 48 mg/kg, 552 hr",BT:39.2 °C
same,"BT (clinical observations, R-TA)","[3]; dog D1002, 48 mg/kg, 576 hr",BT:39.0 °C
same,"BT (clinical observations, R-TA)","[3]; dog D1002, 48 mg/kg, 600 hr",BT:38.6 °C
same,"BT (clinical observations, R-TA)","[3]; dog D1002, 48 mg/kg, 624 hr",BT:38.9 °C
same,"BT (clinical observations, R-TA)","[3]; dog D1002, 48 mg/kg, 648 hr",BT:38.5 °C
same,"BT (clinical observations, R-TA)","[3]; dog D1002, 48 mg/kg, 672 hr",BT:39.3 °C
same,Solubility by volumetric flask method: Sesame oil,[2],>400.6 mg/mL
"C=C1CC[C@@]2(O)C3Cc4ccc(OCOC(=O)OCCCCCCCCCCCCCCCC)c5c4[C@@]2(CCN3CC2CC2)[C@H]1O5 [Compound 34, (((4aS,7aS,12bS)-3-(cyclopropylmethyl)-4a-hydroxy-7-methylene-2,3,4,4a,5,6,7,7a-octahydro-1H-4,12-methanobenzofuro[3,2-e]isoquinolin-9-yl)oxy)methyl hexadecyl carbonate]",%Inh@MaxDose,DOR; MaxDose 10000 nM,22.7%
"C=C1CC[C@@]2(O)C3Cc4ccc(OCOC(=O)OCCCCCCCCCC)c5c4[C@@]2(CCN3CC2CC2)[C@H]1O5 [Compound 35, (((4aS,7aS,12bS)-3-(cyclopropylmethyl)-4a-hydroxy-7-methylene-2,3,4,4a,5,6,7,7a-octahydro-1H-4,12-methanobenzofuro[3,2-e]isoquinolin-9-yl)oxy)methyl decyl carbonate]",Half-life t1/2 (hour) prodrug,[1],70 h
same,"Clinical observations, R-TA","[3]; dog D1501, 48 mg/kg, 24 hr",Red spots at groin
same,"Clinical observations, R-TA","[3]; dog D1501, 48 mg/kg, 48 hr",Red spots at groin
same,"BT (clinical observations, R-TA)","[3]; dog D1501, 48 mg/kg, 72 hr",at groin/BT: 39.1 °C
same,"BT (clinical observations, R-TA)","[3]; dog D1501, 48 mg/kg, 96 hr",at groin/BT: 39.0 °C
same,"BT (clinical observations, R-TA)","[3]; dog D1501, 48 mg/kg, 120 hr",at groin/BT: 39.1 °C
same,"BT (clinical observations, R-TA)","[3]; dog D1501, 48 mg/kg, 144 hr",groin/BT: 38.7 °C
same,"BT (clinical observations, R-TA)","[3]; dog D1501, 48 mg/kg, 192 hr",groin/BT: 38.2 °C
same,"BT (clinical observations, R-TA)","[3]; dog D1501, 48 mg/kg, 216 hr",groin/BT: 38.6 °C
same,"BT (clinical observations, R-TA)","[3]; dog D1501, 48 mg/kg, 240 hr",groin/BT: 38.2 °C
same,"BT (clinical observations, R-TA)","[3]; dog D1501, 48 mg/kg, 264 hr",groin/BT: 38.0 °C
same,"BT (clinical observations, R-TA)","[3]; dog D1501, 48 mg/kg, 288 hr",groin/BT: 38.4 °C
same,"BT (clinical observations, R-TA)","[3]; dog D1501, 48 mg/kg, […]",groin/BT: 38.9 °C
same,"BT (clinical observations, R-TA)","[3]; dog D1502 (third dog column), 48 mg/kg, 72 hr",leg/BT: 39.3 °C
same,"BT (clinical observations, R-TA)","[3]; dog D1502 (third dog column), 48 mg/kg, 96 hr",leg/BT: 39.3 °C
same,"BT (clinical observations, R-TA)","[3]; dog D1502 (third dog column), 48 mg/kg, 120 hr",BT: 39.4 °C
same,"BT (clinical observations, R-TA)","[3]; dog D1502 (third dog column), 48 mg/kg, 144 hr",BT: 39.0 °C
same,"BT (clinical observations, R-TA)","[3]; dog D1502 (third dog column), 48 mg/kg, 192 hr",at calf/BT: 39.2 °C
same,"BT (clinical observations, R-TA)","[3]; dog D1502 (third dog column), 48 mg/kg, 216 hr",calf/BT: 39.2 °C
same,"BT (clinical observations, R-TA)","[3]; dog D1502 (third dog column), 48 mg/kg, 240 hr",calf/BT: 38.9 °C
same,"BT (clinical observations, R-TA)","[3]; dog D1502 (third dog column), 48 mg/kg, 264 hr",6 * 6 cm/BT: 38.7 °C
same,"BT (clinical observations, R-TA)","[3]; dog D1502 (third dog column), 48 mg/kg, 288 hr",6 * 6 cm/BT: 38.7 °C
same,"BT (clinical observations, R-TA)","[3]; dog D1502 (third dog column), 48 mg/kg, […]",at calf/BT: 39.3 °C
same,"BT (clinical observations, R-TA)","[3]; dog D1502, 48 mg/kg, 72 hr",red/BT: 39.6 °C
same,"BT (clinical observations, R-TA)","[3]; dog D1502, 48 mg/kg, 96 hr",red/BT: 38.9 °C
same,"BT (clinical observations, R-TA)","[3]; dog D1502, 48 mg/kg, 120 hr",red/BT: 39.6 °C
same,"BT (clinical observations, R-TA)","[3]; dog D1502, 48 mg/kg, 144 hr",redness/BT: 38.9 °C
same,"BT (clinical observations, R-TA)","[3]; dog D1502, 48 mg/kg, 192 hr",BT: 38.7 °C
same,"BT (clinical observations, R-TA)","[3]; dog D1502, 48 mg/kg, 216 hr",BT: 39.2 °C
same,"BT (clinical observations, R-TA)","[3]; dog D1502, 48 mg/kg, 240 hr",BT: 38.6 °C
same,"BT (clinical observations, R-TA)","[3]; dog D1502, 48 mg/kg, 264 hr",BT: 38.4 °C
same,"BT (clinical observations, R-TA)","[3]; dog D1502, 48 mg/kg, 288 hr",BT: 38.6 °C
same,"BT (clinical observations, R-TA)","[3]; dog D1502, 48 mg/kg, […]",redness/BT: 39.9 °C
"Oc1ccc2c3c1O[C@H]1c4[nH]c5ccccc5c4C[C@@]4(O)[C@@H](C2)N(CC2CC2)CC[C@]314 [Naltrindole, reference compound]",%Inh@MaxDose,DOR; MaxDose 100 nM,98.8%
